Results taken from PubChem BioAssay (NCI).
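Cultured in 96-well plates, cells were exposed to test compound for 48 hours across five concentrations. At the GI50, growth is halved. TGI is the concentration that stops growth completely.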

Legend:
Test in all cases: NCI anticancer screen, dose series, 48 h
BT-549 breast = tested on: BT-549 breast
K-562 leukemia = tested on: K-562 leukemia
MALME-3M melanoma = tested on: MALME-3M melanoma
MDA-MB-231 breast = tested on: MDA-MB-231 breast
NCI-H460 lung = tested on: NCI-H460 lung
NCI-H522 lung = tested on: NCI-H522 lung
RPMI-8226 leukemia = tested on: RPMI-8226 leukemia
SR leukemia = tested on: SR leukemia
TK-10 renal = tested on: TK-10 renal
M19-MEL melanoma = tested on: M19-MEL melanoma
XF 498 CNS = tested on: XF 498 CNS

Structure (SMILES)	TGI (BT-549 breast) [µM]	TGI (K-562 leukemia) [µM]	TGI (MALME-3M melanoma) [µM]	TGI (MDA-MB-231 breast) [µM]	TGI (NCI-H460 lung) [µM]	TGI (NCI-H522 lung) [µM]	TGI (RPMI-8226 leukemia) [µM]	TGI (SR leukemia) [µM]	TGI (TK-10 renal) [µM]	TGI (M19-MEL melanoma) [µM]	TGI (XF 498 CNS) [µM]	GI50 (BT-549 breast) [µM]	GI50 (K-562 leukemia) [µM]	GI50 (MALME-3M melanoma) [µM]	GI50 (MDA-MB-231 breast) [µM]	GI50 (NCI-H460 lung) [µM]	GI50 (NCI-H522 lung) [µM]	GI50 (RPMI-8226 leukemia) [µM]	GI50 (SR leukemia) [µM]	GI50 (TK-10 renal) [µM]
CC(=N\N=C\c1ccccn1)/C(C)=N/N=C(C)/C(C)=N/N=C(C)/C(C)=N/N=C/c1ccccn1	> 100	> 100	> 100	> 100	> 100	> 100	> 100	> 100	> 100	–	–	–	–	–	–	–	–	–	–	–
NCCCCNC1(c2cc3ccccc3s2)CCCCC1	25.4	3.56	4.01	11.4	7.42	6.19	6.1	3.58	10.4	–	–	–	–	–	–	–	–	–	–	–
O=C(C#Cc1cn(C2CC(O)C(CO)O2)c(=O)[nH]c1=O)c1ccccc1 (centres undefined)	> 100	–	24.8	> 100	> 100	17.7	> 100	> 100	> 100	–	–	–	–	–	–	–	–	–	–	–
COc1ccc(C2(C3c4cc(OC)c(OC)cc4CCN3C)SCCCS2)cc1O (centres undefined)	> 100	> 100	> 100	> 100	> 100	> 100	> 100	> 100	> 100	–	–	–	–	–	–	–	–	–	–	–
Nc1c(S(=O)(=O)O)cc(Nc2cccc(S(=O)(=O)/C=C/S(=O)(=O)O)c2)c2c1C(=O)c1ccccc1C2=O	> 100	> 100	> 100	> 100	> 100	> 100	> 100	> 100	> 100	–	–	–	–	–	–	–	–	–	–	–
CN1CCCCC(C(O)(c2ccccc2)c2ccccc2)C1=O (centres undefined)	–	> 100	> 100	–	> 100	> 100	65.7	> 100	> 100	> 100	> 100	–	–	–	–	–	–	–	–	–
CCOC12SC(=Nc3ccc(C)cc3)NN1C(=S)N(C)N=C2C (centres undefined)	–	> 100	–	–	> 100	> 100	> 100	> 100	–	> 100	–	–	–	–	–	–	–	–	–	–
O=c1[nH]c2ccccc2c2oc(-c3ccccc3)nc12	> 100	> 100	> 100	38.1	> 100	> 100	70	70.7	> 100	–	–	–	–	–	–	–	–	–	–	–
CCOc1cc(C2SCC(=O)N2c2nc3cc4sc(N5C(=O)CSC5c5ccc(O)c(OCC)c5)nc4cc3s2)ccc1O (centres undefined)	> 85.4	> 100	> 100	> 100	> 27.5	> 100	> 100	> 100	> 100	–	–	–	–	–	–	–	–	–	–	–
Cc1cc(N=C2C=C(Nc3cc(C)on3)C(=O)c3ccccc32)no1	74.9	> 100	53	28.7	> 100	> 100	> 100	> 100	> 100	8.12	> 100	–	–	–	–	–	–	–	–	–
COC(=O)n1c(CBr)c(Br)c2ccccc21	–	> 100	> 100	–	74.9	34.5	58.7	80.6	94	> 100	–	–	–	–	–	–	–	–	–	–
COc1cc(/C=C/C(=O)OC[C@H](Br)[C@H](OC(C)=O)c2ccc3c(c2)OCO3)cc(OC)c1OC	> 100	> 100	> 100	> 100	–	> 100	> 100	> 100	> 100	–	–	–	–	–	–	–	–	–	–	–
CC(=O)NC1=C(NCc2ccc(Cl)cc2)C(=O)c2ccccc2C1=O	–	16.7	16.5	–	> 50	3.13	–	29.9	15.1	11.2	4.74	–	–	–	–	–	–	–	–	–
CC(=O)Nc1ccc(-c2nnc(SCC(=O)Nc3ccccc3C)o2)cc1	–	> 100	> 100	–	> 100	> 100	> 100	> 100	> 100	> 100	–	–	–	–	–	–	–	–	–	–
CCOC(=O)C(NCc1cccc(C(F)(F)F)c1)(NC(=O)c1ccccc1)C(F)(F)F (centres undefined)	56.1	> 100	69	29.9	–	50.4	94.6	> 100	> 100	–	–	–	–	–	–	–	–	–	–	–
COc1cc2c(c(OC)c1OC)-c1ccc(SC)c(=O)cc1C(CC(=O)Oc1cccc(C#N)c1)C2 (centres undefined)	–	–	> 100	–	19.7	–	21.9	56.3	–	> 100	2.23	–	–	–	–	–	–	–	–	–
CC(=O)OCC1OC(c2nnc(C)o2)=CC(OC(C)=O)C1OC(C)=O (centres undefined)	> 100	> 100	> 100	> 100	> 100	> 100	> 100	> 100	> 100	–	–	–	–	–	–	–	–	–	–	–
Cc1c(F)c(N)c2c(=O)cc(-c3ccc(NC(=O)C(N)CCCN=C(N)N)c(F)c3)oc2c1F (centres undefined)	51.5	> 100	62.5	> 59.6	> 64.9	97.7	> 100	> 100	30.5	–	–	–	–	–	–	–	–	–	–	–
O=C(O)c1ccc(C2C3C=CC(C3)C2[N+](=O)[O-])cc1 (centres undefined)	–	> 100	> 100	–	> 100	> 100	> 100	–	> 100	> 100	> 100	–	–	–	–	–	–	–	–	–
C/C(N=Nc1nc2ccccc2o1)=C1/C=CC=CN1O	> 100	> 100	12.2	> 100	> 100	26.7	> 100	19.5	34.9	–	–	–	–	–	–	–	–	–	–	–
Nc1nc(SCCC/C=C/I)nc2c1ncn2C1OC(CO)C(O)C1O (centres undefined)	–	> 202	> 202	–	> 202	> 202	> 202	> 202	> 202	> 202	> 202	–	–	–	–	–	–	–	–	–
O=C(O)c1ccc(Nc2nc3ccccc3nc2C(=O)O)cc1	> 100	> 100	> 100	> 100	> 100	> 100	> 100	> 100	> 100	–	–	–	–	–	–	–	–	–	–	–

Structure (SMILES)	TGI (BT-549 breast) [µM]	TGI (K-562 leukemia) [µM]	TGI (MALME-3M melanoma) [µM]	TGI (MDA-MB-231 breast) [µM]	TGI (NCI-H460 lung) [µM]	TGI (NCI-H522 lung) [µM]	TGI (RPMI-8226 leukemia) [µM]	TGI (SR leukemia) [µM]	TGI (TK-10 renal) [µM]	TGI (M19-MEL melanoma) [µM]	TGI (XF 498 CNS) [µM]	GI50 (BT-549 breast) [µM]	GI50 (K-562 leukemia) [µM]	GI50 (MALME-3M melanoma) [µM]	GI50 (MDA-MB-231 breast) [µM]	GI50 (NCI-H460 lung) [µM]	GI50 (NCI-H522 lung) [µM]	GI50 (RPMI-8226 leukemia) [µM]	GI50 (SR leukemia) [µM]	GI50 (TK-10 renal) [µM]
Nc1ccc(-n2c(=O)oc3ccc(Cl)cc3c2=O)c(Cl)c1	0.338	> 100	0.362	1.68	3.74	0.588	0.256	–	20.4	–	–	0.0844	0.108	0.0838	0.111	0.109	0.0741	0.0558	0.0987	0.187
N#Cc1nc(/C=C/c2ccccc2)oc1N	> 100	> 100	> 100	> 100	> 100	> 100	> 100	2.9	> 100	–	–	–	–	–	–	–	–	–	–	–
CC1CCC2(CC1)N=C1CCC(C)CC1C1(CCC(C)CC1)N2 (centres undefined)	> 100	> 100	> 100	> 100	> 100	> 100	> 100	> 100	> 100	–	–	–	–	–	–	–	–	–	–	–
COc1cc(-c2nc3nc(N4CCN(C)CC4)ccc3[nH]2)c(OC)c2[nH]c(COC(C)=O)nc12	> 100	> 100	67.9	63.6	99.3	> 100	–	> 100	> 100	–	–	–	–	–	–	–	–	–	–	–
COc1ccc2c(c1)-c1nn(CCN(C)C)c3ccc(C(=O)NCCCN(C)CCCNC(=O)c4ccc5c6c(nn5CCN(C)C)-c5cc(OC)ccc5Nc46)c(c13)N2	0.948	1.14	0.762	0.689	1.11	0.273	0.0768	3.39	4.95	–	–	–	–	–	–	–	–	–	–	–
O=C1C(N=Nc2ccc(-c3nc4ccccc4[nH]3)cc2)NC(=S)N1c1ccccc1 (centres undefined)	> 100	35.8	> 100	> 100	> 100	> 100	60.2	15.3	> 100	–	–	–	–	–	–	–	–	–	–	–
CCOC(=O)[C@H]1Nc2ccc(Cl)cc2[C@H]2c3ccccc3O[C@H]21	–	> 100	–	–	> 100	> 100	> 100	> 100	> 100	> 100	> 100	–	–	–	–	–	–	–	–	–
COC(=O)c1ccccc1CC(Cc1ccccc1)C(=O)OC (centres undefined)	> 100	> 100	> 100	> 100	> 100	> 100	> 100	> 100	> 100	–	–	–	–	–	–	–	–	–	–	–
CC(C)(C)c1cc(C2COC(=O)COCC(=O)OCCOCCOCCO2)cc(C(C)(C)C)c1O (centres undefined)	> 100	> 100	> 100	> 100	98.5	> 100	> 100	> 100	43.7	–	–	–	–	–	–	–	–	–	–	–
C#CCOC(=O)C(N)CCCN=C(N)N (centres undefined)	> 100	–	> 100	> 100	> 100	> 100	> 100	> 100	> 100	–	–	–	–	–	–	–	–	–	–	–
CC(C)CCC[C@@H](C)[C@H]1CCC2C3=CCC4C(=O)C=CC(=O)C4C3CC[C@@]21C (some centres undefined)	1.72	> 100	2	1.32	2.59	> 100	–	> 100	> 100	–	–	0.306	0.139	0.399	0.331	0.324	0.803	0.11	0.263	2.65
O=C(NN1C(=O)C=CC1=O)c1ccccc1Nc1ccccc1C(=O)NN1C(=O)C=CC1=O	> 100	> 100	> 100	> 100	> 100	> 100	> 100	> 100	> 100	–	–	–	–	–	–	–	–	–	–	–
Clc1ncnc2c1ncn2CCCCCCCCCCCCn1cnc2c(Cl)ncnc21	–	17.4	–	–	31.8	2.87	25.4	3.82	54.1	5.7	21.6	–	–	–	–	–	–	–	–	–
COc1ccc(C(O)/C(=C/n2ccnc2)c2ccccc2)cc1OC (centres undefined)	–	> 100	> 100	–	> 100	–	> 100	> 100	> 100	> 100	> 100	–	–	–	–	–	–	–	–	–
CCOC(=O)C(C)c1nc2cc(N3CCN(C)CC3)c(F)cc2[nH]c1=O (centres undefined)	> 100	> 100	> 100	> 100	> 100	> 100	> 100	> 100	–	–	–	–	–	–	–	–	–	–	–	–
CC[C@@H]1CC[C@@H]2[C@H](CC[C@]3(C)[C@@H](OS(=O)(=O)c4ccc(C)cc4)CC[C@@H]23)[C@H]1CO	> 100	> 100	> 100	> 100	> 100	> 100	> 100	> 100	> 100	–	–	–	–	–	–	–	–	–	–	–
COC(=O)c1cccc(C(=O)OC)c1	–	–	> 100	–	> 100	> 100	> 100	> 100	> 100	–	> 100	–	–	–	–	–	–	–	–	–
COc1cc2c(cc1Cl)n([O-])c(C#N)c(N1CCN(c3ccc([N+](=O)[O-])cc3)CC1)[n+]2=O	> 100	> 100	99.6	> 100	> 100	41.6	> 100	> 30.7	> 100	–	–	–	–	–	–	–	–	–	–	–
C=CCN(CC=C)CC(C(C)=O)C(c1ccccc1)c1c(O)c2ccccc2oc1=O (centres undefined)	–	> 100	> 100	–	–	> 100	> 100	> 100	> 100	> 100	> 100	–	–	–	–	–	–	–	–	–
COc1nc2[nH]ccc2c(=O)n1C	–	> 100	> 100	–	> 100	–	> 100	> 100	> 100	–	> 100	–	–	–	–	–	–	–	–	–
COc1ccccc1NC(=O)CC(=O)NNCC(=O)Nc1nnc(-c2ccccc2)o1	–	> 100	–	–	–	> 100	> 100	> 100	> 100	> 100	> 100	–	–	–	–	–	–	–	–	–
